The values below come from patent US20140227357A1, “FILL FORMULATIONS AND CAPSULES AND METHOD OF USE TO AVOID MIGRATION OF FILL INTO OR THROUGH THE SHELL” (CAPSUGEL BELGIUM NV, priority 2011, published 2014).

The nature of this series: Technical batch stability study, 2-butanol and 2-pentanone assay by gas chromatography. It is filed as physicochemical. The following applies: in Formulation 4, sealed LICAPS.

As to `CCCC(C)=O` [Formulation 2-pentanone, 2-pentanone], the “assay, % label claim” value is, setting by setting: (6 months at 25° C./60% RH in PET/Alu/PE bags) 100.3%; (6 months at 40° C./75% RH in PET/Alu/PE bags) 99.8%.
